According to patent US12390423B2 (priority 2019, dated 2025):

Assays:
INS-1 (832/13) cells [1] = experiment: Cytosolic calcium determination (fluo-3AM) in INS-1 (832/13) cells; type: cell-based, rat; conditions: 0.5 mM palmitate, non-stimulatory glucose, AvoB 25 μM, ETO 100 μM, TMB-8 10 μM
Method: INS-1 (832/13) cells were treated as described for the FAO assays but also with metabolic modulators dichloroacetate (DCA) (1 mM) and trimetazidine (25 μM) as well as 10 μM endoplasmic reticulum calcium blocker 8-(N,N-Diethylamino)-octyl-3,4,5-trimethoxybenzoate HCl (TMB-8) (Sigma Aldrich) or 25 nM cyclosporin (Sigma Aldrich) in the presence of 0.5 mM palmitate/1 mM L-carnitine. Cytosolic calcium was measured in INS-1 (832/13) cells using fluo-3AM (Invitrogen, F1241) charged fluorescent dye that accumulates in the cytosol and emits green fluorescence after binding calcium ions. A stock solution of 10 mM fluo-3AM was diluted to 5 μM in fluo-3AM loading buffer (10 mM 4-(2-hydroxyethyl)-1-piperazineethanesulfonic acid (HEPES), 137 mM NaCl, […], 1 mM Na2HPO4, 5 mM glucose, and 0.5 mM MgCl2 (pH 7.4)]. After treatment, cells were incubated in fluo-3AM loading buffer for 30 min at 37° C. with gentle agitation after which cells were washed twice with PBS, trypsinized and collected for flow cytometry analysis. Cytosolic calcium was quantified by taking the mean green fluorescence values of live gated cells and normalizing to vehicle control.

INS-1 (832/13) cells [2] = experiment: Glucose stimulated insulin secretion (GSIS) in INS-1 (832/13) cells; type: cell-based, rat; conditions: 0.5 mM palmitate 24 h, AvoB 25 μM, ETO 100 μM
Method: To measure glucose stimulated insulin secretion (GSIS) in INS-1(832/13) cells a standard protocol was adopted. […] After treatments were complete, cell media was replaced with KRB (Krebs-Ringer Bicarbonate) buffer. Cells were then challenged with 3 mM glucose for 2 h in KRB buffer after which 500 μL KRB buffer was collected and frozen in −80° C. until analysis. For another 2 h, cells were challenged with 16 mM glucose after which 500 μL KRB was collected and frozen in −80° C. until analysis. The amount of insulin released into the KRB buffer was determined by an ELISA kit (Millipore, Rat/Mouse Insulin Detection kit). Data was normalized for cellular protein content, as determined by the Micro-BCA Protein Assay kit. The glucose-dependent insulin secretory index (GSIS16/3), defined as the ratio between the insulin secretion at 16 mM (stimulatory, surrogate to postprandial glucose levels) and 3 mM (basal, surrogate to fasting glucose levels) glucose was also calculated.

C2C12 myotubes = experiment: Cellular ATP content in C2C12 myotubes; type: cell-based, mouse; conditions: 0.5 mM palmitate 24 h, AVO 25 μM, DCA 1 mM, TRI 25 μM
Method: Total cellular ATP content was determined using the ATP bioluminescent assay kit (Calbiochem, 119107). Briefly, cells were seeded in white walled 96-well plates (1.2×10^4 cells/well for INS-1 and 2×10^4 cells/well for C2C12) and treated for 24 h (C2C12 cells were differentiated for 5 days prior to treatments whereas INS-1 cells were treated 24 h after seeding). After treatment, culture media was removed, and cells were lysed with nucleotide releasing buffer with gentle shaking for 5 min. ATP monitoring enzyme was then added to cell lysates and plates and luminescence was read in a Biotek Synergy HT spectrophotometer (Biotek; Winooski, VT).

[3] = tested on: insulin signaling (pAkt-Ser473), MAPK, AMPK; experiment: Immunoblotting (pAkt, pERK1/2, pP38, pAMPKα, PGC-1α) and NAO mitochondrial mass in C2C12 myotubes; type: cell-based, mouse; conditions: 0.5 mM palmitate 24 h, 100 nM insulin 30 min, AvoB 25 μM, DCA 1 mM, TRI 25 μM
Method: For all ROS studies, INS-1 (832/13) cells and C2C12 myotubes were treated with or without palmitate and FAO inhibitors for 24 h in low glucose cell culture media as described for the FAO assay. After treatment, cells were trypsinized and re-suspended in PBS containing 5 μM of the fluorescent dye MitoSOX® (Molecular Probes, Invitrogen) and allowed to incubate for 5-15 minutes in a humidified atmosphere containing 5% CO2 at 37° C. Cells were then washed in PBS, placed in a 96 well plate and fluorescence was measured by flow cytometry. ROS was quantified by normalizing the mean fluorescence values of live gated cells to vehicle control. Mitochondrial membrane potential (MMP) in INS-1 (832/13) and C2C12 myotubes was measured using the cationic fluorescent dye JC-1 (Molecular Probes). JC-1 accumulates in the mitochondrial matrix in an MMP dependent manner. JC-1 fluoresces green in the cytosol where it exists as a monomer, after entering the mitochondria JC-1 monomers form J aggregates and fluoresce red, thus the red/green fluorescence ratio is used to determine MMP. After all treatments, cells were washed, trypsinized and re-suspended in PBS containing 1 μM JC-1 and allowed to incubate for 5-10 minutes in a humidified atmosphere containing 5% CO2 at 37° C. Cells were then washed in PBS, placed in a 96 well plate and fluorescence was measured by flow cytometry. MMP was quantified by normalizing the mean fluorescence values of live gated cells to vehicle control. Mitochondrial mass was measured using 10-N-nonyl acridine orange (NAO; Enzo Life Sciences, ENZ-52306), which accumulates in the mitochondria in an MMP-independent manner where it binds to cardiolipin in the inner mitochondrial membrane. Cells were treated, washed and collected as described and incubated with 0.35 μM NAO and green fluorescence was measured using flow cytometry. In all analysis (ROS, MMP and mitochondrial mass), forward vs side scatter plots were gated to exclude debris (e.g., dead cells), as cell death is associated with increased ROS and altered membrane potentials. For all cell culture experiments, after drug treatments cells were washed with chilled phosphate-buffered saline (PBS), and lysed in chilled lysis buffer with 1× protease inhibitor cocktail (Sigma). RIPA lysis buffer (Sigma-Aldrich) was used for INS-1 (832/13) cells and muscle lysis buffer for C2C12 myotubes (20 mM HEPES, 10 mM NaCl, 1.5 mM MgCl2, 1 mM DTT, 20% glycerol, and 0.1% Triton-X100). Cells were scraped, mechanically homogenized using a syringe and centrifuged at 14,000×g for 20 min at 4° C. and the supernatants were collected. For preparation of all gastrocnemius muscle lysates, 10 mg frozen tissue (wet weight) was washed in chilled PBS, placed in a dounce homogenizer, lysed in muscle lysis buffer and centrifuged at 14,000×g for 20 min at 4° C. and the supernatant was collected. Protein content for cell and tissue lysates was measured using the BCA protein assay kit (ThermoFisher) according to manufacturer's protocol. Thirty μg protein lysates were prepared in loading buffer and immunoblotting was performed by heating lysates for 5 minutes at 95° C. and subjecting them to gel electrophoresis on 10% SDS-polyacrylamide gels at 150 V for 75 minutes. Using a semi-dry transfer apparatus (Bio-Rad) the gels were then transferred at 25V for 45 minutes to a PVDF membrane and blocked with 5% BSA (Sigma) in tris-buffered saline-tween (TBS-T) for 1 hour. […]

Row | SMILES | Cytosolic Ca2+ (Fluo-3AM) (INS-1 (832/13) cells [1]) | Glucose stimulated insulin secretion (GSIS) (INS-1 (832/13) cells [2]) | Total cellular ATP content (C2C12 myotubes) | Insulin signaling (insulin stimulated phosphorylation of AKT Ser473) [3]
1 | CCOC(=O)[C@@]1(CCCCCCOc2ccc(Cl)cc2)CO1 [ETO, etomoxir, reference compound] | able to reduce cytosolic Ca^2+ | GSIS was higher |  | 
2 | CCN(CC)CCCCCCCCOC(=O)c1cc(OC)c(OC)c(OC)c1.Cl [TMB-8, 8-(N,N-Diethylamino)-octyl-3,4,5-trimethoxybenzoate HCl] | able to reduce cytosolic Ca^2+ |  |  | 
3 | COc1ccc(CN2CCNCC2)c(OC)c1OC [trimetazidine, reference compound] |  |  | did not exert such effects | did not exert such effects
